Columns and labels:
GST-Bcl-2 = assay: TR-FRET binding assay, Bcl-2; conditions: TR-FRET Ki values
How it was run: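 Compounds serially diluted in DMSO from 50 μM (2× starting concentration, 10% DMSO), mixed with GST-tagged protein, F-Bak peptide probe and Tb-labeled antibody, incubated 3 h at room temperature.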

FL5.12/Bcl-2 cells = assay: FL5.12/Bcl-2 cell viability assay; type: cell-based, murine; conditions: ratio of canine platelet EC50 to FL5.12/Bcl-2 EC50
Source text: FL5.12 is an IL-3 dependent prolymphocytic murine cell line that undergoes apoptosis upon IL-3 withdrawal as a result of the upregulation of pro-apoptotic Bcl-2 proteins such as Bim and Puma. Stable overexpression of anti-apoptotic Bcl-2 protein (FL5.12/Bcl-2) protects against apoptosis induced by IL-3 withdrawal by sequestration of Bim and Puma. […] The ability of compounds to kill FL5.12/Bcl-2 cells upon IL-3 withdrawal is a direct measure of the compounds' ability to inhibit anti-apoptotic Bcl-2 protein function.
Wild type FL5.12/Bcl-2 overexpressing stable transfectants were cultured in RPMI-1640 supplemented with 2 mM L-glutamine, 10% FBS, 1 mM sodium pyruvate, 2 mM HEPES, 1% penicillin/streptomycin (Invitrogen), 57 μM β-ME, and 10% WEHI-3B conditioned medium (source of IL-3) and maintained at 37° C. containing 5% CO2. 1×10^6 cells/ml were washed 1×PBS and resuspended in medium not supplemented with 10% WEHI-3B for 48 hrs prior to cytotoxicity assays. Cells were then treated for an additional 24 hrs in the presence of various concentrations of the indicated compounds. Cell viability was assessed by CellTitre Glo assay (Promega Corp.) according to the manufacturer's recommendations.

| SMILES | Binding selectivity ratio (Bcl-XL Ki/Bcl-2 Ki) (GST-Bcl-2) | Selectivity Ratio (Platelet EC50/FL5.12/Bcl-2 EC50) (FL5.12/Bcl-2 cells) |
| --- | --- | --- |
| CC1(C)CCC(CN2CCN(c3ccc(C(=O)NS(=O)(=O)c4ccc(NCCCN5CCOCC5)c([N+](=O)[O-])c4)c(Oc4cccc5[nH]ccc45)c3)CC2)=C(c2ccc(Cl)cc2)C1 [Example 55, 4-(4-{[2-(4-chlorophenyl)-4,4-dimethylcyclohex-1-en-1-yl]methyl}piperazin-1-yl)-2-(1H-indol-4-yloxy)-N-({4-[(3-morpholin-4-ylpropyl)amino]-3-nitrophenyl}sulfonyl)benzamide] | 126.9 | 1614 |
| CN(C)CCCNc1ccc(S(=O)(=O)NC(=O)c2ccc(N3CCN(Cc4ccccc4-c4ccc(Cl)cc4)CC3)cc2Oc2cccc3[nH]ccc23)cc1[N+](=O)[O-] [Example 46, 4-{4-[(4′-chloro-1,1′-biphenyl-2-yl)methyl]piperazin-1-yl}-N-[(4-{[3-(dimethylamino)propyl]amino}-3-nitrophenyl)sulfonyl]-2-(1H-indol-4-yloxy)benzamide] | 119.2 | 725 |
| CN1CCC(Nc2ccc(S(=O)(=O)NC(=O)c3ccc(N4CCN(CC5=C(c6ccc(Cl)cc6)CCCC5)CC4)cc3Oc3ccc4[nH]ccc4c3)cc2[N+](=O)[O-])CC1 [Example 75, 4-(4-{[2-(4-chlorophenyl)cyclohex-1-en-1-yl]methyl}piperazin-1-yl)-2-(1H-indol-5-yloxy)-N-({4-[(1-methylpiperidin-4-yl)amino]-3-nitrophenyl}sulfonyl)benzamide] | 852.2 | 821 |
| CN1CCC(Nc2ccc(S(=O)(=O)NC(=O)c3ccc(N4CCN(Cc5ccccc5-c5ccc(Cl)cc5)CC4)cc3Oc3ccccc3)cc2[N+](=O)[O-])CC1 [Example 89, 4-{4-[(4′-chloro-1,1′-biphenyl-2-yl)methyl]piperazin-1-yl}-N-({4-[(1-methylpiperidin-4-yl)amino]-3-nitrophenyl}sulfonyl)-2-phenoxybenzamide] | 57.8 | 495 |
| CC1(C)CCC(CN2CCN(c3ccc(C(=O)NS(=O)(=O)c4ccc(NCCCN5CCCC5)c([N+](=O)[O-])c4)c(Oc4cccc5[nH]ccc45)c3)CC2)=C(c2ccc(F)cc2)C1 [Example 73, 4-(4-{[2-(4-fluorophenyl)-4,4-dimethylcyclohex-1-en-1-yl]methyl}piperazin-1-yl)-2-(1H-indol-4-yloxy)-N-({3-nitro-4-[(3-pyrrolidin-1-ylpropyl)amino]phenyl}sulfonyl)benzamide] | 9.9 | 166 |
| CN1CCN(CCCNc2ccc(S(=O)(=O)NC(=O)c3ccc(N4CCN(Cc5ccccc5-c5ccc(Cl)cc5)CC4)cc3Oc3ccccc3)cc2[N+](=O)[O-])CC1 [Example 86, 4-{4-[(4′-chloro-1,1′-biphenyl-2-yl)methyl]piperazin-1-yl}-N-[(4-{[3-(4-methylpiperazin-1-yl)propyl]amino}-3-nitrophenyl)sulfonyl]-2-phenoxybenzamide] | 49.6 | 489 |
| CN1CCC(Nc2ccc(S(=O)(=O)NC(=O)c3ccc(N4CCN(CC5=C(c6ccc(Cl)cc6)CCCCC5)CC4)cc3Oc3cccc4[nH]ccc34)cc2[N+](=O)[O-])CC1 [Example 147, 4-(4-{[2-(4-chlorophenyl)cyclohept-1-en-1-yl]methyl}piperazin-1-yl)-2-(1H-indol-4-yloxy)-N-({4-[(1-methylpiperidin-4-yl)amino]-3-nitrophenyl}sulfonyl)benzamide] | >1284.0 | 1895 |
| CN(C)CCCNc1ccc(S(=O)(=O)NC(=O)c2ccc(N3CCN(CC4=C(c5ccc(Cl)cc5)CC(C)(C)CC4)CC3)cc2Oc2ccc3[nH]ccc3c2)cc1S(=O)(=O)C(F)(F)F [Example 170, 4-(4-{[2-(4-chlorophenyl)-4,4-dimethylcyclohex-1-en-1-yl]methyl}piperazin-1-yl)-N-({4-{[3-(dimethylamino)propyl]amino}-3-[(trifluoromethyl)sulfonyl]phenyl}sulfonyl)-2-(1H-indol-5-yloxy)benzamide] | 30.2 | 507 |
| CN1CCC(Nc2ccc(S(=O)(=O)NC(=O)c3ccc(N4CCN(CC5=C(c6ccc(Cl)cc6)CC(C)(C)OC5)CC4)cc3Oc3ccc4[nH]ccc4c3)cc2[N+](=O)[O-])CC1 [Example 150, 4-(4-{[4-(4-chlorophenyl)-6,6-dimethyl-5,6-dihydro-2H-pyran-3-yl]methyl}piperazin-1-yl)-2-(1H-indol-5-yloxy)-N-({4-[(1-methylpiperidin-4-yl)amino]-3-nitrophenyl}sulfonyl)benzamide] | 667 | 509 |
| O=C(NS(=O)(=O)c1ccc(NCC2CCOCC2)c([N+](=O)[O-])c1)c1ccc(N2CCN(Cc3ccccc3-c3ccc(Cl)cc3)CC2)cc1Oc1cccc2[nH]ccc12 [Example 45, 4-{4-[(4′-chloro-1,1′-biphenyl-2-yl)methyl]piperazin-1-yl}-2-(1H-indol-4-yloxy)-N-({3-nitro-4-[(tetrahydro-2H-pyran-4-ylmethyl)amino]phenyl}sulfonyl)benzamide] | >797.1 | >360 |
| CN1CCN(Nc2ccc(S(=O)(=O)NC(=O)c3ccc(N4CCN(CC5=C(c6ccc(Cl)cc6)CC(C)(C)CC5)CC4)cc3Oc3ccc4[nH]ccc4c3)cc2[N+](=O)[O-])CC1 [Example 174, 4-(4-{[2-(4-chlorophenyl)-4,4-dimethylcyclohex-1-en-1-yl]methyl}piperazin-1-yl)-2-(1H-indol-5-yloxy)-N-({4-[(4-methylpiperazin-1-yl)amino]-3-nitrophenyl}sulfonyl)benzamide] | 591.3 | 1857 |
| CN(C)CCOc1ccc(-c2ccc(Cl)cc2)c(CN2CCN(c3ccc(C(=O)NS(=O)(=O)c4ccc(NCC5CCOCC5)c([N+](=O)[O-])c4)c(Oc4ccc5[nH]ccc5c4)c3)CC2)c1 [Example 126, 4-[4-({4′-chloro-4-[2-(dimethylamino)ethoxy]-1,1′-biphenyl-2-yl}methyl)piperazin-1-yl]-2-(1H-indol-5-yloxy)-N-({3-nitro-4-[(tetrahydro-2H-pyran-4-ylmethyl)amino]phenyl}sulfonyl)benzamide] | 13575 | >1618 |
| CC(C)N(CCOc1ccc(-c2ccc(Cl)cc2)c(CN2CCN(c3ccc(C(=O)NS(=O)(=O)c4ccc(NCC5CCOCC5)c([N+](=O)[O-])c4)c(Oc4ccccc4)c3)CC2)c1)C(C)C [Example 139, 4-[4-({4′-chloro-4-[2-(diisopropylamino)ethoxy]-1,1′-biphenyl-2-yl}methyl)piperazin-1-yl]-N-({3-nitro-4-[(tetrahydro-2H-pyran-4-ylmethyl)amino]phenyl}sulfonyl)-2-phenoxybenzamide] | 103.1 | 841 |
